Test results published in ChEMBL document CHEMBL5120851, “Discovery of indirubin-3'-aminooxy-acetamide derivatives as potent and selective FLT3/D835Y mutant kinase inhibitors for acute myeloid leukemia” (Eur J Med Chem, 2022).
pIC50: −log10 of the molar value.

How the values were obtained:
[1] = target: T1, Receptor-type tyrosine-protein kinase FLT3 (Homo sapiens, UniProt P36888); test: Inhibition of human recombinant His-tagged FLT3 kinase domain (564 to 958 residues) expressed in baculovirus expression system incubated for 30 mins in presence of ATP by HTRF analysis
T1 sequence (P36888 whole entry): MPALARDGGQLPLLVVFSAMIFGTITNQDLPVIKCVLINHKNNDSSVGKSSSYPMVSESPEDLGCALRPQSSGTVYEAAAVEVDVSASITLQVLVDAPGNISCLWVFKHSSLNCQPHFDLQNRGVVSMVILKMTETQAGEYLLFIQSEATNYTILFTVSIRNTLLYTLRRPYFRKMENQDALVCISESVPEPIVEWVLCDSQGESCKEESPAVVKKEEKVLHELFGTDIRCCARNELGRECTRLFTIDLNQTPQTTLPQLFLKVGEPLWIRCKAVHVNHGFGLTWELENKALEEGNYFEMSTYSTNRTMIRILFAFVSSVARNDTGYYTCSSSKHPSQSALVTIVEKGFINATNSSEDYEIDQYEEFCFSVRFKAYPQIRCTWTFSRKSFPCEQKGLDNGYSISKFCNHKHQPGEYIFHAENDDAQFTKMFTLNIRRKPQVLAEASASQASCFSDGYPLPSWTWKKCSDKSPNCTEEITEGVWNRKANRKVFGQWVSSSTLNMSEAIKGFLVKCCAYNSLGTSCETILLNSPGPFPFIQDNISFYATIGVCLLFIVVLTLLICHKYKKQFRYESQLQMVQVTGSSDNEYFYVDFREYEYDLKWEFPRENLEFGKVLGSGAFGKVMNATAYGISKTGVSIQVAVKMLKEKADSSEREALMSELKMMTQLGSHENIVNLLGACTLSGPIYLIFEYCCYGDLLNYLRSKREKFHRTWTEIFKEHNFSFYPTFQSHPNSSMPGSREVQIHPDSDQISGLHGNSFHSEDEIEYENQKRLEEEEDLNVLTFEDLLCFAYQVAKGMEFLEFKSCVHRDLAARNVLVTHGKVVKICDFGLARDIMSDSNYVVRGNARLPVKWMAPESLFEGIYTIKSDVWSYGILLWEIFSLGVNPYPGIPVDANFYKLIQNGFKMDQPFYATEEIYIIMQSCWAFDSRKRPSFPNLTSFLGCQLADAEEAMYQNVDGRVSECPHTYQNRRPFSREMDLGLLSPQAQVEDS

[2] = target: Receptor-type tyrosine-protein kinase FLT3 (Homo sapiens, UniProt P36888, D835Y); test: Inhibition of human recombinant His-tagged FLT3/D835Y mutant expressed in baculovirus expression system incubated for 30 mins in presence of ATP by HTRF analysis
MV4-11 = test: Antiproliferative activity against human MV4-11 cells assessed as inhibition of cell growth incubated for 72 hrs by EZ-Cytox colorimetric assay; type: functional
MOLM-14 [3] = test: Antiproliferative activity against human MOLM-14 cells assessed as inhibition of cell growth incubated for 72 hrs by EZ-Cytox colorimetric assay; type: functional
MOLM-14 [4] = test: Antiproliferative activity against human MOLM-14 cells harboring FLT3 ITD/D835Y double mutant assessed as inhibition of cell growth incubated for 72 hrs by EZ-Cytox colorimetric assay; type: functional
MOLM-14 [5] = test: Antiproliferative activity against human MOLM-14 cells harboring FLT3 ITD/F691L double mutant assessed as inhibition of cell growth incubated for 72 hrs by EZ-Cytox colorimetric assay; type: functional
[6] = AUClast in ICR mouse at 10 mg/kg, iv measured upto 24 hrs; type: ADME, organism-based; set-up: time < 24 hrs, dose 10 mg/kg, route iv; conditions: in vivo
[7] = Clearance in ICR mouse at 10 mg/kg, iv measured upto 24 hrs; type: ADME, organism-based; conditions: in vivo
[8] = Volume of distribution at steady state in ICR mouse at 10 mg/kg, iv measured upto 24 hrs; type: ADME, organism-based; conditions: in vivo, read-out: Vdss
[9] = Half life in ICR mouse at 10 mg/kg, iv measured upto 24 hrs; type: ADME, organism-based; conditions: in vivo
BaF3 [10] = test: Antiproliferative activity against mouse BaF3 cells harboring FLT3 ITD mutant assessed as inhibition of cell growth incubated for 72 hrs by EZ-Cytox colorimetric assay; type: functional
BaF3 [11] = test: Antiproliferative activity against mouse BaF3 cells harboring FLT3 ITD/D835Y double mutant assessed as inhibition of cell growth incubated for 72 hrs by EZ-Cytox colorimetric assay; type: functional
BaF3 [12] = test: Antiproliferative activity against mouse BaF3 cells harboring FLT3 ITD/F691L double mutant assessed as inhibition of cell growth incubated for 72 hrs by EZ-Cytox colorimetric assay; type: functional
Huh-7 = test: Antiproliferative activity against human Huh-7 cells assessed as inhibition of cell growth incubated for 72 hrs by EZ-Cytox colorimetric assay; type: functional
HepG2 = test: Antiproliferative activity against human HepG2 cells assessed as inhibition of cell growth at 1 uM incubated for 72 hrs by EZ-Cytox colorimetric assay relative to control; type: functional
K562 = test: Antiproliferative activity against human K562 cells assessed as inhibition of cell growth at 1 uM incubated for 72 hrs by EZ-Cytox colorimetric assay relative to control; type: functional
A549 = test: Antiproliferative activity against human A549 cells assessed as inhibition of cell growth at 1 uM incubated for 72 hrs by EZ-Cytox colorimetric assay relative to control; type: functional
MDA-MB-231 = test: Antiproliferative activity against human MDA-MB-231 cells assessed as inhibition of cell growth at 1 uM incubated for 72 hrs by EZ-Cytox colorimetric assay relative to control; type: functional
HCT-116 = test: Antiproliferative activity against human HCT-116 cells assessed as inhibition of cell growth at 1 uM incubated for 72 hrs by EZ-Cytox colorimetric assay relative to control; type: functional
PC-3 = test: Antiproliferative activity against human PC-3 cells assessed as inhibition of cell growth at 1 uM incubated for 72 hrs by EZ-Cytox colorimetric assay relative to control; type: functional

SMILES | pIC50 [1] | pIC50 [2] | GI50 (MV4-11) | GI50 (MOLM-14 [3]) | GI50 (MOLM-14 [4]) | further results
Cl.O=C(CO/N=C1/C(=C2/C(=O)Nc3ccccc32)Nc2ccccc21)N[C@@H]1CCNC1 | 9.54 | 9.70 | 0.52 nM | 2.73 nM | 3.49 nM | GI50 (MOLM-14 [5]): 3.23 nM; AUC(0-t) at 24 h [6]: 367 ng·h/mL; clearance [7]: 323 mL/min/kg; Vd [8]: 103 L/kg; half-life [9]: 3.7 h
NC1CCN(C(=O)CO/N=C2/C(=C3/C(=O)Nc4ccc(F)cc43)Nc3ccccc32)CC1 | 8.60 | 8.46 | 9.76 nM | 36.7 nM | 28.1 nM | 
O=C1Nc2ccc(F)cc2/C1=C1/Nc2ccccc2/C1=N\OCS(=O)(=O)N1CCNCC1 | 8.48 | 8.57 | 9.58 nM | 46.2 nM | 30.8 nM | 
O=C1Nc2ccc(Br)cc2/C1=C1/Nc2ccccc2/C1=N\OCC(=O)N1CCNCC1 | 9.17 | 9.66 | 1.27 nM | 13.9 nM | 16.1 nM | 
O=C(CO/N=C1/C(=C2/C(=O)Nc3ccc(Cl)cc32)Nc2ccccc21)NC1CCNCC1 | 8.93 | 8.97 | 1.08 nM | 8.56 nM | 35.1 nM | 
CN1CCN(C(=O)CO/N=C2/C(=C3/C(=O)Nc4ccccc43)Nc3ccccc32)CC1 | 8.93 | 9.28 | 12.2 nM | 27.8 nM | 23.5 nM | 
CN1CC[C@H](NC(=O)CO/N=C2/C(=C3/C(=O)Nc4ccccc43)Nc3ccccc32)C1 | 8.70 | 8.72 | 6.12 nM | 22.1 nM | 21.1 nM | 
CN1CCC(NC(=O)CO/N=C2/C(=C3/C(=O)Nc4ccc(Cl)cc43)Nc3ccccc32)CC1 | 7.82 | 7.67 | 16.2 nM | 67 nM | 123 nM | 
CN1CCC(NC(=O)CO/N=C2/C(=C3/C(=O)Nc4ccc(F)cc43)Nc3ccccc32)CC1 | 8.14 | 7.84 | 38.7 nM | 75.9 nM | 60.6 nM | 
CN1CCN(C(=O)CO/N=C2/C(=C3/C(=O)Nc4ccc(F)cc43)Nc3ccccc32)CC1 | 9.03 | 9.46 | 6.49 nM | 28 nM | 26.1 nM | 
CN1CCC(NC(=O)CO/N=C2/C(=C3/C(=O)Nc4ccccc43)Nc3ccccc32)CC1 | 7.80 | 7.27 | 43.6 nM | 133 nM | 56.3 nM | 
CN1CCN(C(=O)CO/N=C2/C(=C3/C(=O)Nc4ccc(Cl)cc43)Nc3ccccc32)CC1 | 8.89 | 9.41 | 18.3 nM | 103 nM | 59.1 nM | 
NC1CCN(C(=O)CO/N=C2/C(=C3/C(=O)Nc4ccc(Cl)cc43)Nc3ccccc32)CC1 | 8.74 | 8.87 | 10.5 nM | 40.3 nM | 43.2 nM | 
O=C(CO/N=C1/C(=C2/C(=O)Nc3ccc(F)cc32)Nc2ccccc21)NC1CCNCC1 | 8.58 | 8.67 | 3.27 nM | 18.6 nM | 25.8 nM | 
COc1ccc2c(c1)/C(=C1/Nc3ccccc3/C1=N\OCC(=O)N1CCNCC1)C(=O)N2 | 8.78 | 8.79 | 8.39 nM | 40.4 nM | 36.4 nM | 
O=C1Nc2ccc(Cl)cc2/C1=C1/Nc2ccccc2/C1=N\OCC(=O)N1CCNCC1 | 9.57 | 9.70 | 0.76 nM | 7.22 nM | 12.7 nM | 

SMILES | pIC50 [1] | pIC50 [2] | GI50 (MV4-11) | GI50 (MOLM-14 [3]) | GI50 (MOLM-14 [4]) | further results
O=C(CO/N=C1/C(=C2/C(=O)Nc3ccccc32)Nc2ccccc21)N[C@H]1CCNC1 | 9.19 | 9.70 | 0.68 nM | 5.35 nM | 4.88 nM | GI50 (MOLM-14 [5]): 10.7 nM
O=C1Nc2ccc(F)cc2/C1=C1/Nc2ccccc2/C1=N\OCCC(=O)N1CCNCC1 | 8.91 | 8.47 | 29.5 nM | 111 nM | 112 nM | 
O=C1Nc2ccc(F)cc2/C1=C1/Nc2ccccc2/C1=N\OCCN1CCNCC1 |  |  | 3.69 nM | 25.3 nM | 23.1 nM | GI50 (MOLM-14 [5]): 75.6 nM
CN1CC(NC(=O)CO/N=C2/C(=C3/C(=O)Nc4ccccc43)Nc3ccccc32)C1 | 9.10 | 9.12 | 2.61 nM | 17.4 nM | 17.9 nM | 
O=C1Nc2ccc(OC(F)(F)F)cc2/C1=C1/Nc2ccccc2/C1=N\OCC(=O)N1CCNCC1 | 8.44 | 8.79 | 27.4 nM | 71.9 nM | 87.5 nM | 
CN1CC[C@@H](NC(=O)CO/N=C2/C(=C3/C(=O)Nc4ccccc43)Nc3ccccc32)C1 | 8.85 | 8.66 | 10.5 nM | 30.2 nM | 28.6 nM | 
O=C1Nc2ccc(F)cc2/C1=C1/Nc2ccccc2/C1=N\OCC(=O)N1CCNCC1 | 9.54 | 9.74 | 1.23 nM | 7.17 nM | 7.13 nM | 
O=C1Nc2ccc(F)cc2/C1=C1/Nc2ccccc2/C1=N\OCCS(=O)(=O)N1CCNCC1 | < 7.30 | < 7.30 | 842 nM |  |  | 
CCc1nc(C(N)=O)c(Nc2ccc(N3CCC(N4CCN(C)CC4)CC3)c(OC)c2)cc1NC1CCOCC1 |  |  | 8.2 nM | 35.4 nM | 19.4 nM | GI50 (MOLM-14 [5]): 70.1 nM; GI50 (BaF3 [10]): 1.9 nM; GI50 (BaF3 [11]): 2.45 nM; GI50 (BaF3 [12]): 38 nM; GI50 (Huh-7): 435 nM; inhibition at 1 µM (HepG2): 46.9%; inhibition at 1 µM (K562): 74.6%; inhibition at 1 µM (A549): 4.31%; inhibition at 1 µM (MDA-MB-231): 42.1%; inhibition at 1 µM (HCT-116): 47.7%; inhibition at 1 µM (PC-3): 44.3%
O=C(CO/N=C1/C(=C2/C(=O)Nc3ccccc32)Nc2ccccc21)NC1CNC1 | 8.31 | 8.49 | 4.95 nM | 19.6 nM | 22.3 nM | 
NC1CCN(C(=O)CO/N=C2/C(=C3/C(=O)Nc4ccccc43)Nc3ccccc32)CC1 | 8.68 | 8.51 | 17.3 nM | 48.6 nM | 38.9 nM | 
O=C(CO/N=C1/C(=C2/C(=O)Nc3ccccc32)Nc2ccccc21)NC1CCNCC1 | 8.69 | 8.95 | 7.01 nM | 25.6 nM | 23.8 nM | 
O=C1Nc2ccccc2/C1=C1/Nc2ccccc2/C1=N\OCCC(=O)N1CCNCC1 |  | 8.54 |  |  |  | 
O=C1Nc2ccc(I)cc2/C1=C1/Nc2ccccc2/C1=N\OCC(=O)N1CCNCC1 | 9.10 | 9.35 | 3.72 nM | 23.7 nM | 20.9 nM | 
O=C1Nc2ccccc2/C1=C1/Nc2ccccc2/C1=N\OCS(=O)(=O)N1CCNCC1 |  | 8.42 |  |  |  | 
